Target: T1, Human complement C1s enzyme (Homo sapiens, UniProt P09871)
T1 construct: purified from human serum, Complement Technology, Inc; purchased Complement Technology, Inc; host or cells: human serum (plasma-derived native protein)
T1 sequence (P09871 438-688 limits assumed): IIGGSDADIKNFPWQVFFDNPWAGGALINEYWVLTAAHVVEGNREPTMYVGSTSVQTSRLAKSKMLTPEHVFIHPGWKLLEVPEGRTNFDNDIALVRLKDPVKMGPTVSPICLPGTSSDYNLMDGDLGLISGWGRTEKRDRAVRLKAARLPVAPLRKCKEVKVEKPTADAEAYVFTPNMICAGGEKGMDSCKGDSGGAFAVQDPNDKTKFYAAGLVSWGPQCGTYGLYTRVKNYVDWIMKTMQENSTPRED
T1 sequence (P09871 16-437 partner limits assumed): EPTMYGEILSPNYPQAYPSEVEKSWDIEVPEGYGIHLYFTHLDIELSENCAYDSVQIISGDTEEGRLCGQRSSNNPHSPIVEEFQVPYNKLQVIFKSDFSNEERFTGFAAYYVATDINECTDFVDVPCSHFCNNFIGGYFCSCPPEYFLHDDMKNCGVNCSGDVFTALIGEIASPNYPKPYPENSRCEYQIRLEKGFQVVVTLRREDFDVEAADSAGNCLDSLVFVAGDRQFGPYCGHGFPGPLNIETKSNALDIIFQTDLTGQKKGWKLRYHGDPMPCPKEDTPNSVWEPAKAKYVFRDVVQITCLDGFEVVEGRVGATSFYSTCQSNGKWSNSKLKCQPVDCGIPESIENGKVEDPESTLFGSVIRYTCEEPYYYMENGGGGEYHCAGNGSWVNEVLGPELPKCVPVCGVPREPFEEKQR
Assay: Human C1s enzyme assay
Type: biochemical
Conditions: human complement C1s enzyme 1.16 nM, substrate Z-L-Lys-SBzl, A405; read-out: IC50 (Stars)
Procedure, shortened: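 Serum-purified human C1s (1.16 nM final) preincubated 5 min at room temperature with compound in 50 mM Tris, 1 M NaCl, pH 7.5. Z-L-Lys-SBzl and DTNB added at 100 μM each; A405 recorded every 30 s. IC50 from nonlinear regression of reaction rates versus compound concentration.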

Row | Structure (SMILES) | IC50
1 | O=C(Cn1c(-c2ccccc2)ncc(NCc2cc(-c3ccccc3F)on2)c1=O)NCc1cc2cnccc2[nH]1 [Compound 456, N-((1H-pyrrolo[3,2-c]pyridin-2-yl)methyl)-2-(5-(((5-(2-fluorophenyl)isoxazol-3-yl)-methyl)amino)-6-oxo-2-phen-ylpyrimidin-1(6H)-yl)acet-amide] | < 100 nM
2 | C[C@H](Nc1cnc(-c2ccccc2F)n(CC(=O)NCc2cc3cnccc3[nH]2)c1=O)c1ccc2c(c1)oc1ccccc12 [Compound 309, (S)-N-((1H-pyrrolo[3,2-c]pyridin-2-yl)methyl)-2-(5-((1-(dibenzo[b,d]furan-3-yl)ethyl)-amino)-2-(2-fluorophenyl)-6-oxopyrimidin-1(6H)-yl)acet-amide] | < 100 nM
3 | CC1(c2ccc(CCCNc3cnc(-c4ccccc4)n(CC(=O)NCc4cc5cnccc5[nH]4)c3=O)cc2)COC1 [Compound 180, N-((1H-pyrrolo[3,2-c]pyridine-2-yl)methyl)-2-(5-((3-(4-(3-methyloxetan-3-yl)phenyl)propyl)amino)-6-oxo-2-phenylpyrimidin-1(6H)-yl)acetamide] | < 100 nM
4 | C[C@@H](Nc1cnc(N2CCCCC2)n(CC(=O)NCc2cc3cnccc3[nH]2)c1=O)c1cnc(-c2ccccc2)o1 [Compound 453, (R)—N-((1H-Pyrrolo[3,2-c]pyridine-2-yl)methyl)-2-(6-oxo-5-((1-(2-phenyloxazol-5-yl)ethyl)amino)-2-(piperidin-1-yl)pyrimidin-1(6H)-yl)acetamide] | < 100 nM
5 | COc1ccccc1-c1ccc(CNc2cnc(-c3ccccc3)n(CC(=O)NCc3cc4cnccc4[nH]3)c2=O)cc1 [Compound 257, N-((1H-pyrrolo[3,2-c]pyridin-2-yl)methyl)-2-(5-(((2′-meth-oxy-[1,1′-biphenyl]-4-yl)meth-yl)amino)-6-oxo-2-phenylpyr-imidin-1(6H)-yl)acetamide] | < 100 nM
6 | C[C@@H](Nc1cnc(-c2ccc(S(F)(F)(F)(F)F)cc2)n(CC(=O)NCc2cc3cnccc3[nH]2)c1=O)c1ccc2oc3ccccc3c2c1 [Compound 345, (R)-N-((1H-pyrrolo[3,2-c]pyridin-2-yl)methyl)-2-(5-((1-(dibenzo[b,d]furan-2-yl)ethyl)-amino)-6-oxo-2-(4-(penta-fluoro-lambda6-sulfaneyl)-phenyl)pyrimidin-1(6H)-yl)-acetamide] | < 100 nM
7 | C[C@H](C(=O)NCc1cc2cnccc2[nH]1)n1c(-c2ccccc2F)ncc(N[C@H](C)c2ccc3oc4ccccc4c3c2)c1=O (single isomer, unassigned) [Compound 364, (R*)—N-((1H-pyrrolo[3,2-c]pyridine-2-yl)methyl)-2-(5-(((R)-1-(dibenzo[b,d]furan-2-yl)ethyl)amino)-2-(2-fluorophenyl)-6-oxopyrimidin-1(6H)-yl)propenamide] | > 1000 nM
8 | C[C@@H](Nc1cnc(C2=CCCCC2)n(CC(=O)NCc2cc3cnccc3[nH]2)c1=O)c1coc(-c2ccccc2)n1 [Compound 450, (R)-N-((1H-pyrrolo[3,2-c]pyridin-2-yl)methyl)-2-(2-(cyclohex-1-en-1-yl)-6-oxo-5-((1-(2-phenyloxazol-4-yl)-ethyl)amino)pyrimidin-1(6H)-yl)acetamide] | < 100 nM
9 | O=C(Cn1c(-c2ccccc2)ncc(NC(=O)c2cnc(-c3ccccc3)o2)c1=O)NCc1cc2cnccc2[nH]1 [Compound 107, N-(1-(2-(((1H-pyrrolo[3,2-c]pyridin-2-yl)methyl)amino)-2-oxoethyl)-6-oxo-2-phenyl-1,6-dihydropyrimidin-5-yl)-2-phenyloxazole-5-carboxamide] | < 100 nM
10 | C[C@@H](Nc1ncc(N2CCCC2)n(CC(=O)NCc2cc3cnccc3[nH]2)c1=O)c1ccc2oc3ccccc3c2c1 [Compound 440, (R)-N-((1H-pyrrolo[3,2-c]pyridin-2-yl)methyl)-2-(3-((1-(dibenzo[b,d]furan-2-yl)ethyl)-amino)-2-oxo-6-(pyrrolidin-1-yl)pyrazin-1(2H)-yl)acetamide] | 100 to 1000 nM
11 | N#Cc1ccc(CCCNc2cnc(-c3ccccc3)n(CC(=O)NCc3cc4cnccc4[nH]3)c2=O)cc1 [Compound 48, N-((1H-pyrrolo[3,2-c]pyridin-2-yl)methyl)-2-(5-((3-(4-cyanophenyl)propyl)amino)-6-oxo-2-phenylpyrimidin-1(6H)-yl)acetamide] | < 100 nM
12 | O=C(Cn1c(-c2ccccc2)ncc(NC(=O)c2csc(-c3ccccc3)n2)c1=O)NCc1cc2cnccc2[nH]1 [Compound 209, N-(1-(2-(((1H-pyrrolo[3,2-c]pyridin-2-yl)methyl)amino)-2-oxoethyl)-6-oxo-2-phenyl-1,6-dihydropyrimidin-5-yl)-2-phen-ylthiazole-4-carboxamide] | < 100 nM
13 | O=C(Cn1cncc(NCc2cc(-c3ccccc3)ns2)c1=O)NCc1cc2cnccc2[nH]1 [Compound 484, N-((1H-pyrrolo[3,2-c]pyridin-2-yl)methyl)-2-(6-oxo-5-(((3-phenylisothiazol-5-yl)methyl)-amino)pyrimidin-1(6H)-yl)-acetamide] | < 100 nM
14 | O=C(Cn1c(-c2ccccc2)ncc(NC(=O)c2ccc(Oc3ccc(F)cc3F)cc2)c1=O)NCc1cc2cnccc2[nH]1 [Compound 55, N-(1-(2-(((1H-pyrrolo[3,2-c]pyridin-2-yl)methyl)amino)-2-oxoethyl)-6-oxo-2-phenyl-1,6-dihydropyrimidin-5-yl)-4-(2,4-difluorophenoxy)benzamide] | < 100 nM
15 | O=C(Cn1c(-c2ccccc2)ncc(NCc2coc(-c3ccccc3)n2)c1=O)NCc1cc2cnccc2[nH]1 [Compound 233, N-((1H-pyrrolo[3,2-c]pyridin-2-yl)methyl)-2-(6-oxo-2-phen-yl-5-(((2-phenyloxazol-4-yl)-methyl)amino)pyrimidin-1(6H)-yl)acetamide] | < 100 nM
16 | C[C@@H](Nc1ncc(N2CCOCC2)n(CC(=O)NCc2cc3cnccc3[nH]2)c1=O)c1ccc(-c2ccccc2F)cc1 [Compound 417, (R)-N-((1H-pyrrolo[3,2-c]pyridin-2-yl)methyl)-2-(3-((1-(2′-fluoro-[1,1′-biphenyl]-4-yl)ethyl)amino)-6-morpholino-2-oxopyrazin-1(2H)-yl)acet-amide] | < 100 nM
17 | COC[C@H]1CCCN(c2ncc(N[C@H](C)c3ccc4oc5ccccc5c4c3)c(=O)n2CC(=O)NCc2cc3cnccc3[nH]2)C1 [Compound 467, N-((1H-pyrrolo[3,2-c]pyridin-2-yl)methyl)-2-(5-(((R)-1-(dibenzo[b,d]furan-2-yl)ethyl)-amino)-2-((S)-3-(methoxy-methyl)piperidin-1-yl)-6-oxo-pyrimidin-1(6H)-yl)acetamide] | > 1000 nM
18 | O=C(Cn1c(N2CCCCC2)cnc(NCc2cc(-c3ccccc3)no2)c1=O)NCc1cc2cnccc2[nH]1 [Compound 473, N-((1H-pyrrolo[3,2-c]pyridin-2-yl)methyl)-2-(2-oxo-3-(((3-phenylisoxazol-5-yl)methyl)-amino)-6-(piperidin-1-yl)pyr-azin-1(2H)-yl)acetamide] | < 100 nM
19 | O=C(Cn1c(-c2ccccc2)ncc(NC(=O)c2ccc(-c3ccccc3)s2)c1=O)NCc1cc2cnccc2[nH]1 [Compound 110, N-(1-(2-(((1H-pyrrolo[3,2-c]pyridin-2-yl)methyl)amino)-2-oxoethyl)-6-oxo-2-phenyl-1,6-dihydropyrimidin-5-yl)-5-phenylthiophene-2-carbox-amide] | < 100 nM
20 | O=C(Cn1c(-c2ccccc2)ncc(NCCCc2ccc(F)cc2)c1=O)NCc1cc2cnccc2[nH]1 [Compound 46, N-((1H-pyrrolo[3,2-c]pyridin-2-yl)methyl)-2-(5-((3-(4-fluorophenyl)propyl)amino)-6-oxo-2-phenylpyrimidin-1(6H)-yl)acetamide] | < 100 nM
21 | O=C(Cn1c(-c2ccccc2)ncc(NCCCc2ccc(Cl)cc2)c1=O)NCc1cc2cnccc2[nH]1 [Compound 27, N-((1H-pyrrolo[3,2-c]pyridin-2-yl)methyl)-2-(5-((3-(4-chlorophenyl)propyl)amino)-6-oxo-2-phenylpyrimidin-1(6H)-yl)acetamide] | < 100 nM
22 | C[C@H](Nc1ncc(-c2ccccc2F)n(CC(=O)NCc2cc3cnccc3[nH]2)c1=O)c1ccc2oc3ccccc3c2c1 [Compound 314, (S)—N-((1H-pyrrolo[3,2-c]pyridine-2-yl)methyl)-2-(3-((1-(dibenzo[b,d]furan-2-yl)ethyl)amino)-6-(2-fluorophenyl)-2-oxopyrazin-1(2H)-yl)acetamide] | < 100 nM
23 | O=C(Cn1c(-c2ccccc2)ncc(NCCCCc2ccc(Oc3ccccc3)cc2)c1=O)NCc1cc2cnccc2[nH]1 [Compound 21, N-((1H-pyrrolo[3,2-c]pyridin-2-yl)methyl)-2-(6-oxo-5-((4-(4-phenoxyphenyl)butyl)amino)-2-phenylpyrimidin-1(6H)-yl)acetamide] | < 100 nM
24 | O=C(Cn1c(-c2cccs2)ncc(NCc2ccc3oc4ccccc4c3c2)c1=O)NCc1cc2cnccc2[nH]1 [Compound 251, N-((1H-pyrrolo[3,2-c]pyridin-2-yl)methyl)-2-(5-((dibenzo [b,d]furan-2-ylmethyl)amino)-6-oxo-2-(thiophen-2-yl)pyrimi-din-1(6H)-yl)acetamide] | < 100 nM
